In publication PMC6709486, “Safety, Tolerability, Pharmacokinetics, and Drug Interaction Potential of SPR741, an Intravenous Potentiator, after Single and Multiple Ascending Doses and When Combined with β-Lactam Antibiotics in Healthy Subjects” (Antimicrobial Agents and Chemotherapy, 2019):
Peptide text beside a SMILES is read from it.

Experiments:
clinical [1] = details: human, in vivo, iv
Description: The SAD/MAD study was a phase 1, double-blind, placebo-controlled, multicohort trial. Part 1 used a SAD design according to which subjects received a single i.v. dose of SPR741. Part 2 used a MAD design in which subjects received multiple daily i.v. doses of SPR741 over a period of 14 days. The objective was to assess the safety/tolerability and PK of single and multiple ascending doses of SPR741. In the SAD phase, healthy volunteers were screened within 28 days prior to dosing. Subjects were admitted to the clinical facility on day −1 for up to 3 days. A single dose of SPR741 (or placebo) was administered on day 1. Following completion of all safety assessments and sampling for PK analyses, subjects were discharged on day 2. A follow-up visit occurred 5 to 7 days after day 1 dosing. In the MAD phase, all subjects were admitted to the clinical facility on day −1. Dosing commenced on the morning of day 1. Three doses were administered daily at approximately 8 (±0.5)-h intervals for a total of 14 consecutive days. The last dose was administered on the morning of day 14. Blood and urine samples were collected for assessment of PK parameters. Subjects were discharged on day 16 following completion of all PK sample collection and safety assessments, and a follow-up visit occurred 5 to 7 days after the last dose. The MAD phase of the study began after safety and tolerability were confirmed in cohort 5, and the appropriate dose level was established. Two subjects received placebo, and six subjects received SPR741 doses of 50, 150, 400 or 600 mg q8h for 14 days. In the first cohort of the MAD phase (50 mg q8h), two subjects (sentinels) began dosing with SPR741 or placebo 72 h prior to dosing of the remaining subjects in this cohort. The remaining six subjects were dosed only after no safety concerns were identified by the Safety Monitoring Group at 72 h. […]

clinical [2] = details: human, in vivo, iv, 400 mg; for AUC(0-inf): AUC0-inf
Description: The drug-drug interaction study was a phase 1, single-center, multiarm, open-label, randomized, three-period crossover study. The objective was to evaluate the DDI potential and the PK of SPR741 coadministered with each of three partner antibiotics as well as the DDI and PK effects of three partner antibiotics administered alone and with SPR741. The study comprised a screening phase (day −28 to day −2), three treatment arms (day 1 to day 8 for each arm), and an end-of-study follow-up (day 9). Each subject participated in screening, one treatment arm, and the end-of-study follow-up. The maximum duration of participation for each subject was approximately 37 days. Subjects remained in the clinical unit from the day before dosing (day −1) to 24 h after the third and last dose period (day 8).
The DDI study consisted of three treatment arms with three dosing periods in each arm (days 1, 4, and 7). In random sequence, subjects received a single dose of study treatments with a 2-day washout period between each assigned treatment. In treatment arm 1, subjects received 400 mg of SPR741 i.v. over 1 h, 400 mg of SPR741 i.v. over 1 h plus 1.0 g of ceftazidime i.v. over 1 h, and 1.0 g of ceftazidime i.v. over 1 h. In treatment arm 2, subjects received 400 mg of SPR741 i.v. over 1 h, 400 mg of SPR741 i.v. over 1 h plus 4.5 g of piperacillin-tazobactam i.v. over 1 h, and 4.5 g of piperacillin-tazobactam i.v. over 1 h.
For both studies, maximum plasma concentration (Cmax), area under the concentration-time curve from time zero to the last measurable time point (AUC0-t), area under the concentration-time curve from time zero to infinity (AUC0-inf), time to maximum concentration (Tmax), terminal elimination rate constant (kel), terminal half-life (t1/2), terminal clearance (CL), and volume of distribution (V) were determined. PK parameters were determined using WinNonlin Phoenix, version 6.4.
For the SAD phase, blood samples were obtained predose (within 10 min), at 30 min following the start of infusion, at the end of infusion, and at 75, 90, 105, 120, and 150 min and 3, 4, 5, 6, 8, 10, 12, and 24 h following the start of infusion. For the MAD phase, blood was obtained predose (within 10 min), at 30 min following the start of infusion, at the end of infusion, and at 90 and 150 min and 3, 4, 5, 6, and 8 h following the start of infusion (day 1, first dose; day 14, last dose). Five additional blood samples were obtained at 10, 12, 24, 36, and 48 h following the start of infusion of the last dose (morning of day 14). For the DDI study, blood samples for determining plasma concentrations of SPR741 and each partner antibiotic were obtained predose (within −10 min), at 30 min, and at 1 h, 1 h 15 min, 1 h 30 min, 1 h 45 min, 2, 4, 8, 12, and 24 h postdose for each dose period. Plasma samples for drug concentration measurements were analyzed using a validated high-pressure liquid chromatography tandem mass spectrometry (HPLC-MS/MS) method. In brief, samples were spiked with a stable isotope-labeled internal standard and then extracted by protein precipitation before injection onto the HPLC-MS/MS system. Unique transitions were monitored for all test articles and internal standards. Plasma concentrations below the limit of quantitation were reported as 0.
In the SAD/MAD study, geometric means were calculated for AUC and Cmax values. Analyses using linear models were performed to assess dose proportionality (both single dose and multiple dose), time dependence, accumulation, and attainment of steady state (multiple dose). Dose proportionality was assessed using linear models for the SAD and MAD cohorts separately. […] Point estimates and 90% confidence intervals (CIs), using the residual mean square error obtained from the ANOVA, were constructed for the comparisons between treatments. The point and CI estimates were back-transformed to give estimates of the ratios (percentages) of the geometric LSMs and corresponding 90% CIs.

[3] = geometric LSM, reference treatment

Structure (SMILES): CC(=O)N[C@H](C(=O)N[C@H](CO)C(=O)N[C@H]1CCNC(=O)[C@H]([C@@H](C)O)NC(=O)[C@H](CCN)NC(=O)[C@H](CCN)NC(=O)[C@H](CC(C)C)NC(=O)[C@@H](Cc2ccccc2)NC(=O)[C@H](CCN)NC1=O)[C@@H](C)O [SPR741] (HELM PEPTIDE1{[ac].T.[dS].[Dab].[Dab].[dF].L.[Dab].[Dab].T}$PEPTIDE1,PEPTIDE1,4:R3-10:R2$$$V2.0)
- Tmax (clinical [1]): 1 h
- clearance (clinical [1]; CL): 89 mL/min
- half-life (clinical [1]; mean (apparent terminal elimination) half-life, day 1): 2.2 h
- AUC0-inf, geometric LSM, reference treatment (clinical [2]): 96,800 h·ng/ml
- Tmax (clinical [2]): 1 h
- AUC(0-inf) (clinical [2]): 90300 ng·h/mL
- AUC(0-inf) (clinical [2]; [3]): 79300 ng·h/mL
- AUC0-t (clinical [2]; AUC0-t): 89700 ng·h/mL
- AUC (clinical [2]; AUC0-τ, geometric LSM, reference treatment): 78700 ng·h/mL
- clearance (clinical [2]; CL): 75 mL/min
- Cmax (clinical [2]): 28100 ng/mL
- Cmax (clinical [2]; [3]): 28800 ng/mL
- Vd (clinical [2]; V): 20.6 L
- half-life (clinical [2]; t1/2): 3.2 h
